Source: the NIST ThermoML archive (doi:10.1016/j.jct.2008.09.012)
Numbers after ± are expanded uncertainties.

Assay: molar enthalpy of vaporization or sublimation
Settings: 298.15 K; Liquid; Calvet microcalorimetry

molar enthalpy [kJ/mol] | Structure (SMILES)
52.2 ± 2.2 | COc1ccccc1F [2-fluoroanisole]
48.7 ± 2.2 | COc1ccc(F)cc1 [1-fluoro-4-methoxybenzene]
48.1 ± 2.2 | COc1cccc(F)c1 [3-fluoroanisole]
